The source of these data is PubChem BioAssay AID1645868 (Buhrlage Lab, Dana-Farber Cancer Institute and Novartis …, 2021).

Each structure is given as a SMILES string. pIC50: −log10 of the molar value. Activity calls are given as the source filed them.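 The calls were made as follows: active = maximal percent inhibition of the deubiquitinase OTUD3 of at least 30% across the tested doses; inactive = the rest.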

For the assay, the target named is OTU domain-containing protein 3 (Homo sapiens) (UniProt Q5T2D3). As to the kind of experiment: Validation of screening hits, potency titration, in vitro enzymatic, OTU domain-containing protein 3 DUB inhibitors (AID 1645868). Particulars: purified OTUD3, ubiquitin-rhodamine cleavage fluorescence, 2 h.
OTU domain-containing protein 3 (Homo sapiens), sequence (Q5T2D3 whole entry, looked up, the tested form may be a part): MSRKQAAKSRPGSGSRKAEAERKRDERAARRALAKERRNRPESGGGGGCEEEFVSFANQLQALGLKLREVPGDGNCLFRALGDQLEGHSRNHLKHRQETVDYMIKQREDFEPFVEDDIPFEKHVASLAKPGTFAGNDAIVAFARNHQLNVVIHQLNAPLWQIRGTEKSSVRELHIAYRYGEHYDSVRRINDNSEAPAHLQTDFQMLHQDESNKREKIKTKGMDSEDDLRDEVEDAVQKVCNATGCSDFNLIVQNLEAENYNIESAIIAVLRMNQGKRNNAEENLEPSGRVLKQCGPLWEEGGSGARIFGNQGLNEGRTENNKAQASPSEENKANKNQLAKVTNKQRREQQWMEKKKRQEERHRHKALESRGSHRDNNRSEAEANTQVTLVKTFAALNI

`COc1ccc(OC)c(NC(=O)CSc2nc(C)nc3c2oc2ccccc23)c1`: the IC50 (in general, the point on the concentration scale where inhibition reaches its midpoint) was > 50 µM (inactive).

On to `O=C(CNC(=O)OCc1ccccc1)Nc1ccc(Br)cc1C(=O)c1ccccc1Cl`, for which the pIC50 (as a rule, −log10 of the IC50, conventionally taken in molar units) is 4.87.

Regarding `CCOC(=O)c1c(C)oc2nc(CSc3ccccc3)[nH]c(=O)c12`, the IC50 is > 50 µM (inactive).

For the molecule `Cc1ccc(NC(=O)c2sc(=S)n(CCc3ccccc3)c2N)cc1`, the pIC50 was 4.74.

Regarding `Cc1ccc(Cn2nnc(-c3ccccc3Cl)n2)cc1`, the IC50 is > 50 µM (inactive).

On to `Cn1ncc2c(=O)n(Cc3cccc(Cl)c3)cnc21`, for which the IC50 is > 50 µM (inactive).

On to `COc1ccc2c(C)c(CC(=O)N3CCC[C@H]3C(=O)O)c(=O)oc2c1C`, for which the IC50 was > 50 µM (inactive).

Take `N#Cc1ccccc1Cn1c(=O)n(CCCCC(=O)NCCc2ccccc2)c(=O)c2ccccc21`: the pIC50 was 4.63.

With `Nc1ncnc2c1ncn2[C@@H]1O[C@H](CO)C[C@@H]1O`, the pIC50 is 4.48.

For the molecule `CCCN1CCN(C(=O)c2cc(NC(=O)C3CCC3)cc3nc(C)ccc23)CC1`, the IC50 is > 50 µM (inactive).

For the molecule `Cc1ccc(S(=O)(=O)N2CCCCC2)cc1NC(=O)Cc1cccc(F)c1`, the IC50 is > 50 µM (inactive).

Take `O=c1c(NCCCN2CCCC2)nc2ccncc2n1Cc1ccccc1`: the IC50 was > 50 µM (inactive).

Consider `O=S(=O)(c1ccccc1)N1CCN2Cc3ccccc3N(Cc3ccccc3)CC2C1` (configuration not stated), for which the IC50 is > 50 µM (inactive).

Take `O=C(Cc1cccc2ccccc12)Nc1nc2ccc(F)cc2s1`: the IC50 was > 50 µM (inactive).

For `O=C(NCC1CC1)C1CCCN(c2ccc(-c3ccccc3)nn2)C1` (configuration not stated), the IC50 was > 50 µM (inactive).

Take `C=C1CCC2[C@](C)(CCC[C@]2(C)C(=O)OC)[C@H]1CCc1ccoc1C[N+](C)(C)Cc1ccccc1` (some centres not stated): the IC50 is > 50 µM (inactive).

In the case of `Fc1ccc(Nc2nc(Nc3cccc(F)c3)nc3nccnc23)cc1`, the IC50 was > 50 µM (inactive).

Regarding `COc1ccc(C2C(C(=O)Nc3ccccc3OC)=C(C)Nc3nnnn32)cc1Br` (configuration not stated), the IC50 is > 50 µM (inactive).

Turning to `COc1ccc(C)cc1NC(=O)C1CC(=O)Nc2nc(SCc3ccccc3)nn21` (configuration not stated), the pIC50 is 4.77.

For `CN(C)C(=O)CSc1nnc(-c2cccc(Cl)c2)n1-c1ccc(Cl)c(C(F)(F)F)c1`, the IC50 is > 50 µM (inactive).

Regarding `Cc1ccc2c(Nc3ccc(CC(=O)O)cc3)c(C(=O)N3CCCC3)cnc2n1`, the IC50 is > 50 µM (inactive).

For the molecule `CC1Oc2cc3c(-c4c(O)cc(O)c5c(O)c6c(cc45)OC(C)C(C)C6=O)c(O)cc(O)c3c(O)c2C(=O)C1C` (configuration not stated), the pIC50 was 5.61.

Take `CCOc1ccc(-c2cc3nc(C4CCN(C(=O)OC(C)(C)C)CC4)c(C(=O)Nc4cc(F)ccc4F)cn3n2)cc1`: the IC50 was > 50 µM (inactive).

Turning to `O=C1CC(O)C(C2=CC(=O)c3c(O)cccc3C2=O)O1` (configuration not stated), the pIC50 is 5.61.

As to `CC(=O)c1ccc(NC(=O)c2nc3ccccc3nc2N2CCOCC2)cc1`, the IC50 was > 50 µM (inactive).

Turning to `O=C(NCCn1ccc2ccccc21)c1cc2ccccc2oc1=O`, the IC50 is > 50 µM (inactive).

In the case of `Cc1cc(-c2ccnc3c(C#N)cnn23)c(C)s1`, the IC50 is > 50 µM (inactive).

As to `C=C1CCC2[C@](C)(CCC[C@]2(C)C(=O)OC)[C@H]1CCc1ccoc1/C=C/C(=O)O` (some centres not stated), the IC50 was > 50 µM (inactive).

As for `CN(C)c1cccc(C(=O)Nc2cc(-c3cccnc3)no2)c1`, the pIC50 was 4.45.

As for `COc1cc(NC(=O)COC(=O)Cn2cnc3ccccc32)cc(OC)c1`, the IC50 is > 50 µM (inactive).

For the molecule `COc1ccc(NCc2cc(=O)n3[nH]c(NCc4ccc(C(C)C)cc4)nc3n2)cc1`, the IC50 is > 50 µM (inactive).

In the case of `COc1cccc(NC(=O)Nc2ccc3nc4n(c(=O)c3c2)CCCC4)c1`, the IC50 was > 50 µM (inactive).

In the case of `Cc1cccc(C(=O)NCc2nc3ccccc3n2Cc2ccccc2C)c1`, the IC50 is > 50 µM (inactive).

Regarding `O=C(Nc1ccccc1Cl)N(Cc1cc2cc3c(cc2[nH]c1=O)OCCO3)C1CCCCC1`, the pIC50 is 4.39.

Consider `CCOC(=O)c1cc2c(ccn2C)n1CC(=O)N1CCC(C)CC1`, for which the IC50 is > 50 µM (inactive).

On to `COc1ccccc1C(=O)NCC(c1ccc2c(c1)CCCN2C)N1CCCC1` (configuration not stated), for which the IC50 was > 50 µM (inactive).

On to `Cc1cccc(C(=O)N2CCN3Cc4ccccc4N(C)CC3C2)c1` (configuration not stated), for which the IC50 is > 50 µM (inactive).

On to `CCOc1ccc2cc3c(nc2c1)OC(=O)N(Cc1ccc(C)o1)C3`, for which the IC50 was > 50 µM (inactive).

On to `CCN(C(=O)c1cc2c(s1)-c1ccccc1OC2)c1ccccc1F`, for which the IC50 is > 50 µM (inactive).

On to `COc1cc(OC)cc(-n2c(=O)c3sccc3n(CC(=O)Nc3ccc(C)cc3)c2=O)c1`, for which the pIC50 is 4.68.

Take `COc1ccc(CNC(=O)CN2C(=O)CC(c3ccccc3)=Nc3ccccc32)cc1`: the pIC50 was 4.79.

As to `O=C(Nc1cccc(C(F)(F)F)c1)N1CCCn2c(nc3ccccc32)C1`, the pIC50 is 4.42.

`Cc1ccc2[nH]c(=O)c(-c3nc4ccc(C)cn4c3NCc3ccc(F)cc3)cc2c1`: the pIC50 is 5.47.

Regarding `Cc1cc(SCc2ncon2)c(C)cc1Cl`, the IC50 is > 50 µM (inactive).

In the case of `COc1ccc(-c2cnnn2-c2ccc(NC(=O)c3c(F)cccc3F)cc2)cc1OC`, the IC50 was > 50 µM (inactive).

For `O=c1ccc(-c2noc(Cc3c(F)cccc3Cl)n2)c[nH]1`, the IC50 was > 50 µM (inactive).

As for `CCn1c(SCC(=O)c2c(N)n(CC(C)C)c(=O)n(C)c2=O)nnc1-c1ccccc1`, the pIC50 was 4.59.

Turning to `Cc1c(C(=O)Nc2ccc(-c3nnc4n3CCCCC4)cc2)oc2c1ccc1ccccc12`, the IC50 is > 50 µM (inactive).

With `Cc1cc(NC(=O)COc2ccc3oc4ccccc4c3c2)no1`, the IC50 is > 50 µM (inactive).

Take `O=C(c1ccc(N2CCc3ccccc32)nn1)N1CCc2ccccc21`: the IC50 is > 50 µM (inactive).

As to `Cc1cccc(NC(=O)Cn2c(=O)n(Cc3ccc(F)cc3)c(=O)c3sccc32)c1`, the pIC50 is 4.76.

Take `CCOC(=O)c1sc2c(c1C)c(=O)n(Cc1ccccc1)c(=O)n2CC(N)=O`: the IC50 is > 50 µM (inactive).

In the case of `COc1cc(NC(=O)Cn2nc(-c3ccc(F)cc3)ccc2=O)ccc1-n1cnnn1`, the pIC50 is 5.25.

Turning to `N#Cc1ccc(Cc2ncc(C(F)(F)F)cc2Cl)s1`, the IC50 is > 50 µM (inactive).

For `O=S(=O)(c1ccc2c(c1)OCCO2)N(Cc1ccccc1)Cc1nnc(-c2ccccc2)o1`, the IC50 is > 50 µM (inactive).

Turning to `COc1ccc(-c2nnc(SCc3ccccc3C#N)o2)c(OC)c1`, the IC50 is > 50 µM (inactive).

On to `O=C(Nc1cc(-c2cccnc2)no1)c1ccc(F)c(F)c1`, for which the pIC50 is 4.50.

Consider `O=C(Cc1noc2ccccc12)NCC(=O)Nc1ccc(Cl)cc1`, for which the pIC50 is 4.65.

For the molecule `Cc1ccc2nc(NC(=O)C3CCCN3S(=O)(=O)c3ccc4c(c3)OCCO4)sc2c1` (configuration not stated), the IC50 is > 50 µM (inactive).

With `O=C(Nc1ccc(Br)cn1)c1nc2ccccc2nc1N1CCCCC1`, the IC50 is > 50 µM (inactive).

With `COc1cc(C)cc2c1C(=O)c1c(cc(O)c(Cl)c1O)C2=O`, the pIC50 was 5.68.

For `O=C(NC1CCCCC1)c1cc2c(cn1)[nH]c1ccccc12`, the IC50 is > 50 µM (inactive).

`COc1ccc(C(=O)CSc2ccc3nnc(CCNC(=O)c4ccc(OC)cc4)n3n2)cc1`: the IC50 is > 50 µM (inactive).

For `CCOC(=O)c1ccc(NC(=O)C[n+]2cc(-c3ccc(Cl)cc3)n3c2CCC3)cc1`, the IC50 is > 50 µM (inactive).

Take `COc1cc(O)c2c(=O)c(-c3ccc(O)cc3)coc2c1`: the IC50 is > 50 µM (inactive).

For the molecule `CCC(=O)N1c2ccccc2NC2=C(C(=O)CC(c3ccccc3OCc3ccccc3)C2)C1c1ccccc1` (configuration not stated), the pIC50 is 4.91.

As for `O=C(NCc1ccccc1)c1ccc2c(=O)n(-c3ccccc3)c(=O)[nH]c2c1`, the pIC50 was 4.42.

With `COc1ccc(Cl)cc1-n1nnc(C(=O)N2CCc3ccccc3C2)c1C`, the IC50 was > 50 µM (inactive).

For the molecule `N#Cc1c(N)nc2c(c1N)C(c1ccccc1)CO2` (configuration not stated), the IC50 is > 50 µM (inactive).

For `Cc1ccc(C)c(CSC2=NCCN2C(=O)c2ccco2)c1`, the IC50 is > 50 µM (inactive).

As to `COc1cc(NC(=O)c2cc(-c3ccncc3)n(-c3ccc(F)cc3)n2)cc(OC)c1`, the IC50 was > 50 µM (inactive).

As for `CCN(CCCNC(=O)c1ccc(Cn2c(=O)[nH]c3ccccc3c2=O)cc1)c1ccccc1`, the pIC50 is 4.76.

In the case of `COc1ccc(CN2CCCC23CCCN(C(=O)CCc2cccnc2)C3)cc1F` (configuration not stated), the pIC50 is 4.31.

For the molecule `Cc1cc(C#N)c2c(C)ccc(C(C)C)cc1-2`, the IC50 is > 50 µM (inactive).

Take `COc1c2n(c3ccccc13)[C@@]1(O)C(=O)N(C)C(=O)[C@@]1(O)c1c-2n(C)c2ccc(Cl)cc12`: the IC50 was > 50 µM (inactive).

As to `CCc1nc2cc(NC(=O)c3cccc(N4CCCC4=O)c3)ccc2n1C`, the IC50 was > 50 µM (inactive).

On to `Cc1ccc(-n2cc3c(N4CCCC(C(=O)NCC5CCCCC5)C4)ncnc3n2)cc1` (configuration not stated), for which the IC50 was > 50 µM (inactive).

Turning to `O=C(NC(Cc1ccccc1)c1nc2ccccc2[nH]1)C1CC1` (configuration not stated), the IC50 was > 50 µM (inactive).

For `Cc1cccc(C)c1NC(=O)Cn1c(=O)n(CCCCC(=O)NCc2ccc3c(c2)OCO3)c(=O)c2ccccc21`, the pIC50 is 5.55.

On to `COc1c2c(cc3cc(O)c4c(=O)cc(C)oc4c13)CCC2=O`, for which the IC50 is > 50 µM (inactive).

`O=c1c2cnc(N3CCOCC3)nc2ccn1CCc1ccccc1`: the pIC50 is 4.55.

On to `O=C(Cn1c(=O)n(Cc2ccc3c(c2)OCO3)c(=O)c2ncccc21)c1ccccc1`, for which the IC50 was > 50 µM (inactive).

In the case of `CC1(C)CC(n2[nH]c(=O)c3c2NC(=O)CSC3c2ccc(OCc3ccccc3)cc2)CCO1` (configuration not stated), the negative-log IC50 (pIC50) was 4.65.

Turning to `Cc1nnc(Sc2cc(C(=O)NCCN3CCCC3)c3ccccc3n2)s1`, the IC50 is > 50 µM (inactive).

With `CCc1ccc(C(C)NC(=O)C2CCN(c3ccc4nncn4n3)CC2)cc1` (configuration not stated), the IC50 was > 50 µM (inactive).

With `O=c1[nH]c2ccc(S(=O)(=O)Nc3ccc(O)c4ccccc34)cc2[nH]1`, the IC50 was > 50 µM (inactive).

Take `Cc1c(C(=O)c2ccccc2)c2ccccn2c1CCc1ccccn1`: the IC50 was > 50 µM (inactive).
